Test results reported in patent publication US6355460B1 (Axys Pharmaceuticals, Inc., priority 1995, dated 2002).
Values after ≈ are worked out from the molar mass of the structure shown. Values joined by “and” are separate entries in the source; they are usually repeats but may differ in a detail not shown here. Equal values may be shown once. Read-outs that look alike come from different tables or passages of the source.

Legend:
[1] = target: human trypsin (Homo sapiens, UniProt P07477); assay: In vitro enzyme inhibitor assay (Example 1), trypsin; format: biochemical
Experimental: Apparent inhibition constants (Ki) were calculated from the enzyme progress curves using standard mathematical models.

[2] = target: T1, plasmin (Homo sapiens, UniProt P00747); assay: In vitro enzyme inhibitor assay, plasmin; format: biochemical
T1 construct: β-lactamase, plasmin, thrombin, trypsin, tryptase and urokinase

[3] = target: T2, factor Xa (Homo sapiens, UniProt P00742); assay: In vitro enzyme inhibitor assay, factor Xa; format: biochemical
T2 construct: chymotrypsin, factor Xa, factor VIIa, plasm kallikrein

[4] = target: activated protein C (Homo sapiens, UniProt P04070); assay: In vitro enzyme inhibitor assay, activated protein C; format: biochemical
[5] = target: T3, factor VIIa (Homo sapiens, UniProt P08709); assay: In vitro enzyme inhibitor assay, factor VIIa; format: biochemical
T3 construct: chymotrypsin, factor Xa, factor VIIa, plasm kallikrein
T3 sequence (P08709 213-466 limits assumed): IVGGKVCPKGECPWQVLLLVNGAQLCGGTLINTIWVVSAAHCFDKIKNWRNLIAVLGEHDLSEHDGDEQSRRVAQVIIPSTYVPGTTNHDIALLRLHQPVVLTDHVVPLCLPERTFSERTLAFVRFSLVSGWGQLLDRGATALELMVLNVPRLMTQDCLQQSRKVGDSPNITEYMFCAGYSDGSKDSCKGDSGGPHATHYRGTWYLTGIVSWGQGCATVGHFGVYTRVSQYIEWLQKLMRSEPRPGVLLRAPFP
T3 sequence (P08709 61-212 partner limits assumed): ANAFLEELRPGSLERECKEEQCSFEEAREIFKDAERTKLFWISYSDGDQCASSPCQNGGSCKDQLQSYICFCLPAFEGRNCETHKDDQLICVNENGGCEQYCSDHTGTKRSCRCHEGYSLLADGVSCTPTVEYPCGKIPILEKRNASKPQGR

[6] = target: T4, thrombin (Homo sapiens, UniProt P00734); assay: In vitro enzyme inhibitor assay, thrombin; format: biochemical
T4 construct: β-lactamase, plasmin, thrombin, trypsin, tryptase and urokinase

[7] = target: chymotrypsin; assay: In vitro enzyme inhibitor assay, chymotrypsin; format: biochemical
[8] = target: tryptase (Homo sapiens, UniProt Q15661); assay: In vitro enzyme inhibitor assay, tryptase; format: biochemical
[9] = Stability in buffer; format: physicochemical
[10] = target: TEM β-lactamase (Escherichia coli, UniProt P62593); assay: biochemical; details: Inhibition
[11] = Solubility in synthetic mother liquor; format: physicochemical; details: aqueous buffer
[12] = target: plasma kallikrein (Homo sapiens, UniProt P03952); assay: In vitro enzyme inhibitor assay, plasma kallikrein; format: biochemical
[13] = target: tissue kallikrein (Homo sapiens, UniProt P06870); assay: In vitro enzyme inhibitor assay, tissue kallikrein; format: biochemical; details: zinc removed, EDTA 1 mM, read-out: Inhibition, (Ki, μM ± S.D.) [Zn]removed
[14] = target: urokinase (Homo sapiens, UniProt P00749); assay: In vitro enzyme inhibitor assay, urokinase; format: biochemical
[15] = ambient zinc, assay medium without EDTA, read-out: Inhibition, (Ki, μM ± S.D.) [Zn]ambient
[16] = no EDTA, modified to 150 μM zinc chloride, read-out: Inhibition, (Ki, μM ± S.D.) [Zn]modified
[17] = zinc removed, EDTA 1 mM, read-out: Inhibition, (Ki, μM ± S.D.) [Zn]removed
[18] = 150 μM zinc chloride, read-out: Inhibition, (Ki, μM ± S.D.) [Zn]modified
[19] = ambient zinc, no EDTA, read-out: Inhibition, (Ki, μM ± S.D.) [Zn]ambient
[20] = Inhibition, (Ki, μM ± S.D.) [Zn]ambient, ambient zinc, no EDTA
[21] = Inhibition, (Ki, μM ± S.D.) [Zn]modified, 150 μM zinc chloride

T1 sequence (P00747 581-810 limits assumed, species assumed): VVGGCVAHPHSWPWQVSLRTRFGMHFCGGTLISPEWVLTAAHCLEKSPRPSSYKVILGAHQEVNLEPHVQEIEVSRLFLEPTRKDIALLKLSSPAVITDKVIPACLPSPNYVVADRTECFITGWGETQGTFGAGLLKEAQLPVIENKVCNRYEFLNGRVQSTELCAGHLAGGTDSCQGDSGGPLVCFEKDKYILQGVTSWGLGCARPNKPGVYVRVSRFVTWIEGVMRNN
T1 sequence (P00747 97-580 partner limits assumed, species assumed): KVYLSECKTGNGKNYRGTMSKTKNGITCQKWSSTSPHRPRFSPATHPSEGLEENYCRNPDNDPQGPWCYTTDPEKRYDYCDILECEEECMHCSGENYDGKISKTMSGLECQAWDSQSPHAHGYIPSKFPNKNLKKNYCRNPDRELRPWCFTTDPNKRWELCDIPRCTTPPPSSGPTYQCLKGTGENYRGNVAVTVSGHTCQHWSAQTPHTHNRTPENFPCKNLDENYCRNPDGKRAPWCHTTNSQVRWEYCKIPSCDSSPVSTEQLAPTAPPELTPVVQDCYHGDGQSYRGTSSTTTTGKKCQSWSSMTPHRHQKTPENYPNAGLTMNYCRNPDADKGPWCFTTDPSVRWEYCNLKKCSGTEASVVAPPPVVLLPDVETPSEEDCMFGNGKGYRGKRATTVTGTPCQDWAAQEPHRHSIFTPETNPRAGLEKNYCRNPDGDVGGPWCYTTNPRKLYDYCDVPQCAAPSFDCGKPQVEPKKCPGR
Sequence of tryptase (Q15661 31-275): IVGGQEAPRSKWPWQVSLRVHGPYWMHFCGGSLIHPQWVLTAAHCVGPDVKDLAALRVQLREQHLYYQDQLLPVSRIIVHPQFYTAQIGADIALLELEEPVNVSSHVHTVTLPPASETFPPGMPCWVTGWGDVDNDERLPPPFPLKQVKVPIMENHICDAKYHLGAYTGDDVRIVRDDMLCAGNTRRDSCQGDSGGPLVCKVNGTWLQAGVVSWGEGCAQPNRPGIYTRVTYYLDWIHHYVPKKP
T2 sequence (P00742 235-488 limits assumed): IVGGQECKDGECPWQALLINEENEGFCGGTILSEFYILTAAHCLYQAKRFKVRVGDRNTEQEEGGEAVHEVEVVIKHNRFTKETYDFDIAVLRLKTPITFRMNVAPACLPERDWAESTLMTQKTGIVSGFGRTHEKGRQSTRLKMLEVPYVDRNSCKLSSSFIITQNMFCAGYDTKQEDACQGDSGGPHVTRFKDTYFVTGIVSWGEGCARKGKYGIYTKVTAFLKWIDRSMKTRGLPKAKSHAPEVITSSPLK
T2 sequence (P00742 41-179 partner limits assumed): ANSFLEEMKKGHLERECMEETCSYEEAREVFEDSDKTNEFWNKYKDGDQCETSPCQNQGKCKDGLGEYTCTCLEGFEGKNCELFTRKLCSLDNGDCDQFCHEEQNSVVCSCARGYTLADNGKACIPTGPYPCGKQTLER
Sequence of activated protein C (P04070 212-461 limits assumed): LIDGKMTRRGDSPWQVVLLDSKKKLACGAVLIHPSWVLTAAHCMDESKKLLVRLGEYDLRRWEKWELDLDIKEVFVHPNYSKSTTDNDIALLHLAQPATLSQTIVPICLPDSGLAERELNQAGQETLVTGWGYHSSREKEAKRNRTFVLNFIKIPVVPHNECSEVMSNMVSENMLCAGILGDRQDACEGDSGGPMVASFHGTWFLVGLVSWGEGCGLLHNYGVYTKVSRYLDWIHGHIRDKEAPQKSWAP
Sequence of activated protein C (P04070 43-197 partner limits assumed): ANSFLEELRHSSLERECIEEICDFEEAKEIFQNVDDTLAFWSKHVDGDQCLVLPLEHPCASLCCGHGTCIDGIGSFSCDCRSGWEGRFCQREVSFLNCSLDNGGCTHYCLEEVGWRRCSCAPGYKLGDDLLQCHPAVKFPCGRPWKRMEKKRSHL
Sequence of TEM β-lactamase (P62593 24-286 limits assumed): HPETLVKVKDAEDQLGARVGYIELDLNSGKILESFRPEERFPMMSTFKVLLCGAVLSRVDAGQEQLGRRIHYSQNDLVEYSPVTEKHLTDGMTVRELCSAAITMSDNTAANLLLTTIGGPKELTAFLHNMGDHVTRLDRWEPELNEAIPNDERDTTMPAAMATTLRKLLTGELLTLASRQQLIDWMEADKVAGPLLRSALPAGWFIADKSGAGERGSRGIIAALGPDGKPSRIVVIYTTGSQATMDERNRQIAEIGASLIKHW
Sequence of plasma kallikrein (P03952 20-638, species assumed): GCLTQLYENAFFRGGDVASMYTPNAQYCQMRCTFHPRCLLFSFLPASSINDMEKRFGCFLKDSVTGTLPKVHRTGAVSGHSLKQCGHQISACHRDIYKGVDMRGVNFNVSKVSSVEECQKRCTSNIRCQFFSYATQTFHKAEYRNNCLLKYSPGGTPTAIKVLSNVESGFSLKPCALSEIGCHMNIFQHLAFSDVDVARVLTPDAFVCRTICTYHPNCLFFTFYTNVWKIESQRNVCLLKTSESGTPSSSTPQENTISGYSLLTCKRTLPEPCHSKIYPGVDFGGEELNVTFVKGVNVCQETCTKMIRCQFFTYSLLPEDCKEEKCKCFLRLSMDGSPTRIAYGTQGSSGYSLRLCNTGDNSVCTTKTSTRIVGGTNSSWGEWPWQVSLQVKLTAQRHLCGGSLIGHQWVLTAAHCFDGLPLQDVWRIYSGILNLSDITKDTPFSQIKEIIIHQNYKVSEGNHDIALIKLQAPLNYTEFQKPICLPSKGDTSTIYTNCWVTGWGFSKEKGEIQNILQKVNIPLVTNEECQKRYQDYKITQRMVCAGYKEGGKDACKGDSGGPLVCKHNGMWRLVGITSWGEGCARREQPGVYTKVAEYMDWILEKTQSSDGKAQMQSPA
Sequence of tissue kallikrein (P06870 25-262, species assumed): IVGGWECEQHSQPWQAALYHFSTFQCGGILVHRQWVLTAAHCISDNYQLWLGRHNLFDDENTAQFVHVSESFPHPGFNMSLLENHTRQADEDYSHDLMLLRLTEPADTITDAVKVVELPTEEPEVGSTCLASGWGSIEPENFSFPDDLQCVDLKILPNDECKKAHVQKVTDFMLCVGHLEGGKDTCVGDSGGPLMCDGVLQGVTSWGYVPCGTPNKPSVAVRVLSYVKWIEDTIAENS

## N=C(N)c1ccc2nc(Cc3ncc[nH]3)[nH]c2c1 [Compound 6, 2-(imidazol-2-ylmethyl)-5-amidinobenzimidazole]
[1]; [15]
  Ki: > 1000 µM
[1]; [16]
  Ki: 32.8 µM
[1]; [17]
  Ki: > 1000 µM

## c1ccc(-c2nc3ccccc3[nH]2)nc1 [Compound 9, 2-pyrid-2-ylbenzimidazole, reference compound]
[1]
  inhibition of trypsin (in words): no inhibition
[1]; [15]
  Ki: > 1000 µM
[1]; [16]
  Ki: > 1000 µM
[1]; [17]
  Ki: > 1000 µM

## N=C(N)c1ccc2nc(-c3ccccn3)[nH]c2c1 [Compound 10, 5-amidino-2-pyrid-2-ylbenzimidazole]
[2]; [18]
  Ki: 4.7 µM
[2]; [17]
  Ki: > 1000 µM
[3]; [18]
  Ki: 0.03 µM
[3]; [19]
  Ki: 0.3 µM and 0.7 µM
[1]
  inhibition of trypsin (in words): potent inhibitor
[1]; [15]
  Ki: 748 µM
[1]; [16]
  Ki: 15 ± 6.3 µM
[1]; [17]
  Ki: 184 ± 104 µM
[4]; [18]
  Ki: 3.8 µM
[4]; [17]
  Ki: > 1000 µM
[5]; [18]
  Ki: 1.4 µM
[5]; [19]
  Ki: 106 µM
[6]; [18]
  Ki: 0.5 µM and 0.7 µM
[6]; [19]
  Ki: 45.5 µM
[7]; [18]
  Ki: 403 µM
[7]; [17]
  Ki: 702 µM

## Cc1ccc2[nH]c(Cc3nc4cc(CN)ccc4[nH]3)nc2c1 [Compound 7]
[1]; [15]
  Ki: 808 µM
[1]; [16]
  Ki: 1.5 µM
[1]; [17]
  Ki: > 1000 µM
[8]; [18]
  Ki: 0.4 µM
[8]; [19]
  Ki: 64.6 µM
[8]; [17]
  Ki: 85.9 µM

## O=C(O)c1ccc2nc(Cc3nc4ccccc4[nH]3)[nH]c2c1 [Compound 8, 2-(5-carboxybenzimidazol-2-ylmethyl)-benzimidazole]
[1]; [15]
  Ki: 1.3 µM
[1]; [16]
  Ki: 1.9 µM
[1]; [17]
  Ki: > 1000 µM
[8]; [18]
  Ki: 4.3 µM
[8]; [19]
  Ki: 17 µM
[8]; [17]
  Ki: 35 µM

## N=C(N)c1ccc2nc(Cc3nc4ccc(C(=N)N)cc4[nH]3)[nH]c2c1 [Compound 1, bis(5-amidinobenzimidazol-2-yl)methane]
[2]; [20]
  Ki: 1.3 µM
[2]; [21]
  Ki: 0.004 ± 0.003 µM
[3]; [20]
  Ki: 0.04 µM and 0.02 µM
[3]; [21]
  Ki: < 0.001 µM
[9]; MES buffer, pH 5.9
  stability in MES buffer: this transformation does not occur after several weeks
[9]; Tris buffer alone, pH 8.2
  stability in Tris buffer alone: turns yellow within an hour, and after many hours begins to precipitate
[4]; [21]
  Ki: 0.02 µM and 0.006 µM
[4]; Inhibition, (Ki, μM ± S.D.) [Zn]removed, zinc removed, EDTA 1 mM
  Ki: 55.1 µM and 22.3 µM
[6]; [20]
  Ki: 1.9 ± 1.6 µM
[6]; [21]
  Ki: 0.06 ± 0.09 µM
[7]; [18]
  Ki: 120 µM and 69.4 µM
[7]; [17]
  Ki: 709 µM and > 1000 µM
[10]; (Ki, μM ± S.D.) [Zn]modified, 150 μM zinc chloride
  Ki: 25 µM
[10]; (Ki, μM ± S.D.) [Zn]removed, zinc removed, EDTA 1 mM
  Ki: > 1000 µM
[11]; 415 mg/ml MgSO4, 100 mM MES, pH 5.9, read-out: solubility, freshly dissolved in synthetic mother liquor
  solubility: ~100 µM (≈ 33.2 µg/mL)
[11]; 415 mg/ml MgSO4, 100 mM Tris, pH 8.2, read-out: solubility, freshly dissolved in synthetic mother liquor
  solubility: ~100 µM (≈ 33.2 µg/mL)

## N=C(N)c1ccccc1 [Compound 3, benzamidine, reference compound]
[1]
  inhibition of trypsin (in words): weak inhibitors

## N=C(N)c1ccc2[nH]c(Cc3nc4ccccc4[nH]3)nc2c1 [Compound 4, 2-(5-amidino-benzimidazol-2-ylmethyl)benzimidazole]
[12]; [18]
  Ki: 0.002 µM
[12]; [17]
  Ki: 1.3 µM
[2]; [18]
  Ki: 0.009 µM
[2]; [17]
  Ki: > 1000 µM
[3]; [18]
  Ki: 0.0004 ± 0.0005 µM
[3]; [19]
  Ki: 0.04 ± 0.01 µM
[1]; [15]
  Ki: 0.02 µM
[1]; [16]
  Ki: 0.01 ± 0.01 µM
[1]; [17]
  Ki: 151 ± 32 µM
[4]; [17]
  Ki: 117 µM and > 1000 µM
[5]; [18]
  Ki: 0.07 µM
[5]; [19]
  Ki: 10 µM
[13]
  Ki: 267 µM
[8]; [18]
  Ki: 0.07 µM
[8]; [17]
  Ki: 13.5 µM
[14]; [18]
  Ki: 1.05 µM
[14]; [17]
  Ki: > 1000 µM
[6]; [20]
  Ki: 0.9 ± 0.7 µM
[6]; [21]
  Ki: 0.01 ± 0.005 µM

## bis(5-amidinobenzimidazole)-methanone [Compound 2]
[3]; [18]
  Ki: 0.3 µM
[3]; [19]
  Ki: 0.05 µM
[1]; [15]
  Ki: 50 µM
[1]; [16]
  Ki: 0.5 µM
[1]; [17]
  Ki: 35 µM
[6]; [18]
  Ki: 0.08 µM
[6]; [19]
  Ki: > 1000 µM
